From patent US20160206637A1, “Effects of Alpha-Glycerophosphocholine Versus Caffeine in Measures of Cognitive, Psychological and Physiological Functions” (priority 2015, published 2016)

How the values were obtained:
[1] = test system: recreationally active participants; assay: Serial subtraction test (SST) of cognitive function; format: in vivo, human; conditions: 30 minutes after supplementation; for SST score (average time per correct calculation): 200 mg oral, crossover, 20 participants
From the text: Following supplementation, participants performed all non-fatiguing tests first.

[2] = test system: recreationally active participants; assay: Vertical jump test, peak power (Tendo Unit); format: in vivo, human; conditions: 30 minutes after supplementation
Method: Participants were scored by the total number of successful catches. Following the non-fatiguing tests, the participants performed a standardized warm-up in which they walked on a treadmill for 5 minutes at 3 miles per hour. Following the warm-up, participants performed the fatiguing tests which included vertical jump, broad jump, 40 yard dash, and the pro-agility shuttle. […] Participants then performed three attempts for the standing broad jump. Maximum broad jump distance was recorded. Lastly, participants performed one 40 yard dash and one pro-agility shuttle (5-10-5 drill) on an indoor, wooden gymnasium floor. Times was measured by hand and recorded.
(§1) Upon arrival to the Human Performance Laboratory at Angelo State University on each of the 4 testing sessions, participants were provided with a sample of the supplement. Participants were assigned to consume a placebo, 200 mg of caffeine, 200 mg of α-GPC, and 400 mg of α-GPC in a randomized, double-blind, placebo controlled, cross-over manner. After consuming the supplement, participants waited 30 minutes before completing the testing protocol. All participants were advised that they should not have had anything to eat or drink, except for water, in the previous 8 hours. Additionally, participants were asked to refrain from consuming any food or beverages that contain caffeine or other stimulants for at least 24 hours prior to completing the testing sessions.
(§2) Twenty participants (10 males, 10 females; 22.0±3.4 years of age; height 171.9±7.4 cm; weight 56.8±8.6 kg) consumed 200 mg of αGPC (αGPC-L, Alpha-Size®, Chemi Nutra, Austin, Tex. USA), 400 mg of Alpha-GPC (αGPC-H), 200 mg of caffeine (CA), and a placebo (PL) in a randomized, double-blind, placebo-controlled, crossover design. Participants performed the following measurements 30 minutes after supplementation: visual analog scales (VAS) for six different moods, a serial subtraction test (SST), and tests for reaction time, hand-eye coordination, power, speed and agility.

[3] = test system: recreationally active participants; assay: Visual analog scale (VAS) for jitteriness; conditions: 200 mg caffeine; compared to αGPC-H (400 mg), but not αGPC-L or PL; 30 minutes after supplementation
Method: as §1, §2

[4] = test system: healthy, college-aged males; assay: Upper body isometric test (UBIST) peak force; format: in vivo, human; conditions: 600 mg daily
Method: The Institutional Review Board at the University of Louisiana at Lafayette reviewed the present investigation for ethics. The study was a double-blind, placebo-controlled crossover with a 1-week washout period that included 13 healthy, college-aged males (Means±SD; Age: 21.9±2.2 years, Height: 180.3±7.7 cm; Weight: 87.6±15.6 kg, VO2 max: 40.08±7.23 ml O2*kg^−1; body fat: 17.5±4.6%). Subjects reported to the lab and give informed consent, which included consent to publish, prior to baseline assessments, which included height and weight, an assessment of maximum aerobic capacity via a COSMED CPET system (COSMED, Rome ITL) with integrated electronically braked cycle ergometer as outlined in previous studies incorporated herein by reference (5) and body fat percentage via air displacement plethysmography (Bod Pod Gold Standard System, COSMED Rome, ITL). The following week trial one (random order: either placebo or 600 mg of αGPC) began. For the trials baseline performance testing was done and they were given an initial dose (placebo or α-GPC) while in the lab, 1 h later the performance testing (isometric mid-thigh pull, upper body isometric test) was repeated. The subjects were then given 6 days of additional pre-packaged supplement to take (morning and evening). The subjects reported back on day 6 of this period to repeat performance testing after the final dose of supplement. After a 1-week washout period, the subjects repeated the trial with the other treatment (see FIG. 4). […]
The participants were positioned on three elevated platforms with the chest directly suspended over a load cell anchored into the concrete floor of the lab (iLoad Pro, Loadstar Sensors, Fremont Calif.). […] The participants were placed in a push-up style position, with the hands at 150% of biacromial width, and the elbows at 90° of extension (measured via a goniometer). […] The load cell was set to capture data at maximum rate (150 Hz) and the data was exported and analyzed in JMP 11.0 (SAS Institute Inc, Ca1y NC). […]
(§3) Reliability was assessed for the isometric tests via Intra Class Correlation Coefficients (ICC). […]

[5] = test system: healthy, college-aged males; assay: Isometric mid-thigh pull (IMTP) peak force; format: in vivo, human
Method: The Institutional Review Board at the University of Louisiana at Lafayette reviewed the present investigation for ethics. The study was a double-blind, placebo-controlled crossover with a 1-week washout period that included 13 healthy, college-aged males (Means±SD; Age: 21.9±2.2 years, Height: 180.3±7.7 cm; Weight: 87.6±15.6 kg, VO2 max: 40.08±7.23 ml O2*kg^−1; body fat: 17.5±4.6%). Subjects reported to the lab and give informed consent, which included consent to publish, prior to baseline assessments, which included height and weight, an assessment of maximum aerobic capacity via a COSMED CPET system (COSMED, Rome ITL) with integrated electronically braked cycle ergometer as outlined in previous studies incorporated herein by reference (5) and body fat percentage via air displacement plethysmography (Bod Pod Gold Standard System, COSMED Rome, ITL). The following week trial one (random order: either placebo or 600 mg of αGPC) began. For the trials baseline performance testing was done and they were given an initial dose (placebo or α-GPC) while in the lab, 1 h later the performance testing (isometric mid-thigh pull, upper body isometric test) was repeated. The subjects were then given 6 days of additional pre-packaged supplement to take (morning and evening). The subjects reported back on day 6 of this period to repeat performance testing after the final dose of supplement. After a 1-week washout period, the subjects repeated the trial with the other treatment (see FIG. 4).
The treatments consisted of 600 mg daily of α-GPC (Alphasize®, ChemiNutra, Austin Tex.) or a placebo. Both treatments were administered in the same capsules (gel caps) and were the same color (white). The α-GPC capsules were supplied with a certificate of analysis from a third party lab confirming the amount of active ingredient. The placebo capsule consisted of microcrystalline cellulose and magnesium stearate (Nature's Supplements, Carlsbad, Calif. USA). Both the participant and researcher were unaware of the identity of either treatment until the end of the study. […]
The isometric mid-thigh pull test (IMTP) is a well validated strength measure (Beckman, G, et al. “Relationship of isometric mid-thigh pull variables to weightlifting performance.” J. Sports Med. Phys Fitness 2010; 35:573-81). […] The height of the bar was adjusted so that the participant was in a position where the torso was upright (assessed via a contractors box level), the knees achieved between 120-130° of flexion (measured via a goniometer) and the arms were straight while holding the bar. […] The peak force was assessed at a sampling rate of 2000 Hz using an AMT1 Force Plate. […]
as §3

Compound: Cn1c(=O)c2c(ncn2C)n(C)c1=O [CA, caffeine]
- SST score (average time per correct calculation) [1]: 7.32 ± 5.67 s
- Vertical Jump Peak Power ([2]; 200 mg oral): 1,920.4±689.6 W
- Vertical Jump Peak Power higher in comparison to PL ([2]; 200 mg oral): 2.0%
- scores on the VAS for jitteriness [3]: significantly higher

Compound: α-Glycerophosphocholine [αGPC]
- SST score (average time per correct calculation) [1]: 6.19 ± 2.21 s
- SST scores faster compared to CA ([1]; 200 mg αGPC (αGPC-L) vs 200 mg caffeine): 18.1%
- SST scores faster compared to PL ([1]; 200 mg αGPC (αGPC-L) vs placebo): 10.5%
- magnitude based inference: likely beneficial for increasing upper body isometric force ([4]; 6 days): 68.3%
- UBIST force production, change from baseline ([4]; baseline to day 6): 50.9±167.2 N
- UBIST effect size (ES, Cohen's d), treatment by time ([4]; day 6, vs placebo): 0.714
- magnitude based inference: likely beneficial for increasing lower body isometric force production ([5]; 600 mg daily, 6 days): 86.5%
- IMTP effect size (ES, Cohen's d), treatment by time ([5]; 600 mg daily, day 6, vs placebo): 0.961
- IMTP performance, acute treatment effect (repeated measures Anova) ([5]; 1 h after the initial dose, vs placebo): did not reveal any main effects
- increase in lower body isometric strength ([5]; 6 days of supplementation, 600 mg daily): > 3%
- Vertical Jump Peak Power ([2]; 200 mg oral): 2,041.3±547.2 W
- Vertical Jump Peak Power higher in comparison to PL ([2]; 200 mg oral): 8.5%
- Vertical Jump Peak Power ([2]; 400 mg oral (αGPC-H)): 2,023.1±942.8 W
- Vertical Jump Peak Power higher in comparison to PL ([2]; 400 mg oral (αGPC-H)): 7.5%
